Experimental findings from publication PMC6891555, “Thuwalallenes A–E and Thuwalenynes A–C: New C15 Acetogenins with Anti-Inflammatory Activity from a Saudi Arabian Red Sea Laurencia sp” (Marine Drugs, 2019) are described below.

“Also recorded” adds a separate entry of the source.

For data set [1], the system named is NO production in LPS-treated RAW 264.7 cells. The data set can be described thus: Inhibition of NO production (Griess reaction) in LPS-treated RAW 264.7 macrophages. As to conditions: for IC50: Mus musculus, RAW264.7, LPS (100 ng/mL, 48 h)-treated RAW 264.7 cells, 1 h pre-treatment, Griess reaction, vs vehicle Carbowax 400; for anti-inflammatory activity (inhibition of NO production), in words: TLR4 (LPS) stimulated macrophages. Format: cell-based, mouse. The protocol:
(§1) The IC50 values for the inhibition of NO production were determined in LPS-treated RAW 264.7 cells in comparison to cells treated with the vehicle (Carbowax 400) only (Table 3, Figure S1). To verify that the anti-inflammatory activity observed was not due to cytotoxic effect, the potential cytotoxicity of 1–6, 8, 10 and 11 was evaluated using the MTT assay following 24, 48 and 72 h of treatment in RAW 264.7 macrophages (Table 3, Figure S2).
(§2) Mouse macrophage cell line RAW 264.7 was cultured in DMEM medium (cat. # 21885-025, Gibco, Thermo Fisher Scientific, Waltham, MA, USA) supplemented with 10% heat inactivated fetal bovine serum (cat. # 10270-106, Gibco, Thermo Fisher Scientific, Waltham, MA, USA) and 1% penicillin-streptomycin (cat. # 15070-063, Gibco, Thermo Fisher Scientific, Waltham, MA, USA). Cells were cultured in 37 °C and 5% CO2. Each compound was diluted in Carbowax^TM 400 + 10% ethanol (cat. # 1.00983, Merck, Darmstadt, Germany), used also as control solvent. Final concentration in culture was 0.1% v/v carbowax and 0.01% v/v ethanol. RAW 264.7 macrophages were activated using 100 ng/mL lipopolysaccharide (LPS) (L2630, Merck, Darmstadt, Germany). In IC50 determination experiments, macrophages were pre-treated for 1 h with the respective compound prior to LPS stimulation.
30 × 10^4 RAW 264.7 mouse macrophages were plated in 24-well plates over-night with 0.5 mL complete medium. Cells were pretreated for 1 h with the respected compound concentration and then stimulated with 100 ng/mL LPS (L2630, Merck, Darmstadt, Germany) for 48 h. The amount of nitrite, an oxidative product of NO, was measured in culture supernatant of each sample using the Griess reaction. 100 μL of supernatant was mixed with 100 μL of sulfanilamide solution (1% sulfanilamide in 5% H3PO4) and incubated for 5 min at room temperature. Then, 100 μL of NED solution (0.1% N-1-napthylethylenediamine dihydrochlorite in H2O) was added and the absorbance was measured in an automated microplate reader (Infinite 200 PRO, Tecan, Männedorf, Switzerland) at 540 nm. Nitrite concentration was calculated using a sodium nitrite standard curve. All incubations were performed in the dark.
For orientation: Nitrite, measured by Griess reagent, commonly stands in for NO production.

The nature of data set [2]: Cytotoxicity by MTT assay in RAW 264.7 macrophages. The class given is cell-based, mouse. As to conditions: mouse, 72 h of treatment. As for the experimental part:
as §1, §2
(§3) 3.5 × 10^3 RAW 264.7 mouse macrophages were seeded in 96-well plate and cultured over night. Cells were subsequently treated with the respective compound concentration and incubated for 24, 48 and 72 h. Number of cells was measured prior to treatment and used as normalisation control. Thiazolyl Blue Tetrazolium Bromide (MTT) (A2231.001, Applichem GmbH, Darmstadt, Germany) was added to the cells in a final concentration of 0.5 mg/mL and then cells were incubated at 37 °C and 5% CO2 for 4 h. The supernatant was discarded and cells were lysed with 2-propanol (33539, Honeywell, Charlotte, NC, USA) with 0.4% HCl (30721, Merck, Darmstadt, Germany). The absorbance of each sample was measured in an automated microplate reader (Infinite 200 PRO, Tecan, Männedorf, Switzerland) at 600 nm. The average OD of each treated sample was normalized to the OD of the control sample and statistical analysis was performed using Graphpad Prism 7.0 (GraphPad Software, San Diego, CA, USA).

The test system of the next data set is RAW 264.7 macrophages. The data set can be described thus: Cytotoxicity by MTT assay in RAW 264.7 macrophages. Format: cell-based, mouse. As to conditions: for concentration above which cytotoxicity was observed: 72 h following treatment. As for the experimental part: as §1, §2, §3
The nature of data set [3]: Stability of isolated metabolites (observation). Format: physicochemical. To be noted: reason why bioactivity was not evaluated.

What is called IC50 is the concentration at which inhibition is half-maximal.

With `CCC1OC2CC(C(O)CC(Cl)C=C=CBr)OC2CC1Br` (centres unmarked) [Compound 5, Thuwalallene D], in data set [1], the IC50 amounted to 12.4 ± 1.04 µM. The molecule also gave an IC50 at 72 h in data set [2] greater than 15.6 µM. Also, the “concentration above which cytotoxicity was observed” value with RAW 264.7 macrophages is reported as “higher than 15.62 μM”.

For the molecule `C#C/C=C\CC(Br)[C@H]1C[C@H]2O[C@@H](CC)[C@H](Br)C[C@H]2O1` (relative stereo) [Compound 6, Thuwalenyne B], the IC50 in data set [1] is 37.4 ± 2.51 µM. For the same molecule, the IC50 at 72 h in data set [2] was greater than 15.6 µM. Also, the “concentration above which cytotoxicity was observed” value with RAW 264.7 macrophages was “higher than 15.62 μM”.

On to `CC[C@@H]1O[C@@H]2C[C@@H]3O[C@@H]3C[C@H](C=C=CBr)O[C@@H]2C[C@H]1Br` (relative stereo) [Compound 2, Thuwalallene B], for which the IC50 in data set [1] was 13.2 ± 0.57 µM. For the same molecule, the 50% inhibitory concentration (IC50) at 72 h in data set [2] is greater than 31.2 µM. The “concentration above which cytotoxicity was observed” value in the data set on RAW 264.7 macrophages was greater than 31.25 µM.

For `CCC1OC2CC3OC3CC(C=C=CBr)OC2CC1Br` (centres unmarked) [Compound 1, Thuwalallene A], the IC50 in data set [1] is 26 ± 3.73 µM. The molecule further showed an IC50 at 72 h in data set [2] greater than 15.6 µM. Moreover, in the data set with RAW 264.7 macrophages, the “concentration above which cytotoxicity was observed” value is reported as “higher than 15.62 μM”.

Regarding `CC[C@@H]1O[C@@H]2C/C=C\C[C@H](C=C=CBr)O[C@@H]2C[C@H]1Br` (relative stereo) [Compound 3, Thuwalallene C], the IC50 in data set [1] worked out at 4.18 ± 0.48 µM. In data set [2], the IC50 at 72 h was greater than 15.6 µM. In addition, in the data set on RAW 264.7 macrophages, the “concentration above which cytotoxicity was observed” value is “higher than 15.62 μM”.

Turning to `CCC(Br)C1CC2OC(C=C=CBr)CC=CCC2O1` (centres unmarked) [Compound 8, Thuwalallene E], the IC50 in data set [1] is 3.98 ± 0.6 µM. The molecule also gave an IC50 at 72 h in data set [2] greater than 7.81 µM. Also, the “concentration above which cytotoxicity was observed” value with RAW 264.7 macrophages is no less than 7.81 µM.

With `CC(C)(O)[C@H]1CC[C@](C)([C@@H](O)CC[C@](C)(O)[C@H]2CC[C@H]3O[C@@H]([C@]4(C)CC[C@@H](Br)C(C)(C)O4)CC[C@]3(C)O2)O1` [Compound 10, thyrsiferol], the “anti-inflammatory activity (inhibition of NO production), in words” value in data set [1] is listed as “IC50 values in the low nM scale”. The molecule further displayed an IC50 at 72 h in data set [2] greater than 0.1 µM. Also, in the data set on RAW 264.7 macrophages, the “concentration above which significant cytotoxicity was observed” value is reported as “above 100 nM” and the “cytotoxicity, in words” value is on record as “without significant cytotoxicity”.

Take `C#C/C=C\C[C@@H]1O[C@@H]2C[C@@H](Br)[C@H](CC)O[C@@H]2C[C@@H]1Br` (relative stereo) [Compound 4, Thuwalenyne A]: in data set [1], the IC50 is greater than 62.5 µM and the “anti-inflammatory activity (inhibition of NO production), in words” value was “did not exhibit any activity; also recorded: did not exhibit anti-inflammatory activity”. In data set [2], this molecule showed an IC50 at 72 h greater than 62.5 µM. Moreover, in the data set with RAW 264.7 macrophages, the “cytotoxicity, in words” value is recorded as “did not exhibit anti-inflammatory activity or cytotoxicity”.

For `C#C/C=C\C/C=C\C[C@H]1O[C@@H](CC)[C@H](Br)C[C@H]1O` (relative stereo) [Compound 7, Thuwalenyne C], the “stability of the metabolite, in words” value in data set [3] is on record as “proven to be unstable”.

As for `CC(=O)OC(C)(C)C1CCC(C)(C(O)CCC(C)(O)C2CCC3OC(C4(C)CCC(Br)C(C)(C)O4)CCC3(C)O2)O1` (centres unmarked) [Compound 11, 23-acetylthyrsiferol], in data set [1], the IC50 amounted to 0.00263 µM and the “anti-inflammatory activity (inhibition of NO production), in words” value is “IC50 values in the low nM scale”. Moreover, in data set [2], the IC50 was greater than 0.01 µM. Besides, in the data set on RAW 264.7 macrophages, the “concentration above which significant cytotoxicity was observed” value is “above 10 nM” and the “cytotoxicity, in words” value is on record as “without significant cytotoxicity”.
